The subject of this assay is tyrosinase. The assay can be described thus: Determination of tyrosinase inhibitory effect (L-DOPA substrate, absorbance at 475 nm). To be noted: comparison with arbutin, determined in a way described in Example 4.

SMILES strings stand for the structures.

Method: The activity of tyrosinase was determined at the wavelength of 475 nm and calculated from the decrease of the absorbance.
35 μl of the tyrosinase inhibitor extract of Example 1 and 35 μl of 80% propylene glycol were used as the test and control samples. The inhibition percent of the tyrosinase activity was calculated by the equation: Inhibition percentage (%) of the tyrosine activity=[1−(Absorbance of experiment sample)/(Absorbance of control sample)]×100%. The DOPA and tyrosinase solution (1000 units/ml in 16.7 mM potassium phosphate butter) used in the following experiments were purchased from Sigma Corp., USA.
15.1 of tyrosinase solutions was added to each (35 μl) of six samples of tyrosinase inhibitor extract of Example 1. The resultant solutions were maintained at 25. for 0, 1, 2, 3, 4, 5, 6 hours, respectively. 450.1 of L-DOPA substrate was added to each of the solutions.
15.1 of tyrosinase solutions was added to each (35 μl) of three samples of tyrosinase inhibitor extract of Example 1. The resultant solutions were maintained at 25., 37. and 50. for 1 hour, respectively. 450.1 of L-DOPA substrate was added to each of the solutions.
15.1 of tyrosinase solutions was added to each (35 μl) of five samples of tyrosinase inhibitor extract of Example 1. The resultant solutions were maintained at pH 4, 5, 6, 7 and 8 for 1 hour, respectively. […]

`OC[C@H]1O[C@@H](Oc2ccc(O)cc2)[C@H](O)[C@@H](O)[C@@H]1O` [Arbutin]: the “% inhibitory Activity” value is listed as 32+−0.0%.
